Drawing on PubChem BioAssay (NCI), this text covers TGI for 12 molecules.

Some test systems named below: SK-MEL-28 melanoma; OVCAR-3 ovarian; OVCAR-5 ovarian; MOLT-4 leukemia; A498 renal; HOP-92 NSCLC; SNB-19 CNS; HS 578T breast; UO-31 renal; SF-295 CNS; PC-3 prostate.
Common to all, as to test: growth of human tumour cells (NCI), 48 h

The structures appear in SMILES notation.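 Step 1: Grow cells in 96-well plates. Step 2: Expose to compound for 48 hours at 5 concentrations. Step 3: Interpolate endpoints linearly; if unreached, use highest concentration. Definition used: TGI = concentration required for complete inhibition of growth.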

`S=C(Nc1ccc2c(c1)oc1ccccc12)c1cccs1`: the TGI in the test on SK-MEL-28 melanoma, in the test with OVCAR-3 ovarian, in the test with OVCAR-5 ovarian, in the test with MOLT-4 leukemia, with A498 renal and with HOP-92 NSCLC was greater than 100 µM each time. The TGI in the test on SNB-19 CNS, in the test on HS 578T breast, in the test on UO-31 renal, in the test with SF-295 CNS and in the test with PC-3 prostate was greater than 100 µM in each case.

Turning to `O=C(CCc1ccc(O)c(O)c1)NCCc1cc(O)c(O)c(O)c1`, the TGI with SK-MEL-28 melanoma is greater than 100 µM; in the test with OVCAR-3 ovarian it was 34.5 µM; with OVCAR-5 ovarian, greater than 100 µM; with MOLT-4 leukemia, 46.5 µM; in the test on A498 renal, greater than 100 µM; in the test on HOP-92 NSCLC, greater than 100 µM. In addition, the TGI in the test on SNB-19 CNS was greater than 100 µM; in the test with HS 578T breast, greater than 100 µM; in the test with UO-31 renal it was greater than 100 µM; in the test with SF-295 CNS, 33.3 µM; in the test with PC-3 prostate it was greater than 100 µM.

Take `COC(=O)c1ccc(C)cc1C1CN=NC12Cc1cc(C)ccc1C2=O` (configuration not stated): the TGI was greater than 100 µM in the test on SK-MEL-28 melanoma; greater than 80.1 µM in the test with OVCAR-3 ovarian; greater than 100 µM with OVCAR-5 ovarian; greater than 86.6 µM with MOLT-4 leukemia; 55.5 µM in the test with A498 renal; 84.7 µM with HOP-92 NSCLC. Moreover, the TGI in the test on SNB-19 CNS is greater than 100 µM; with HS 578T breast, 41.3 µM; with UO-31 renal it was greater than 85.1 µM; with SF-295 CNS, greater than 77.2 µM; in the test with PC-3 prostate, 58.1 µM.

On to `OCC1OC(n2cnc3c(SCc4ccccc4)ncnc32)C(O)C1O` (configuration not stated), for which the TGI with SK-MEL-28 melanoma is greater than 100 µM; in the test with OVCAR-3 ovarian, greater than 100 µM; with OVCAR-5 ovarian, greater than 100 µM; in the test with MOLT-4 leukemia it was greater than 39.8 µM; with A498 renal it was greater than 31.4 µM; with HOP-92 NSCLC, greater than 79.9 µM. In addition, the TGI with SNB-19 CNS is greater than 100 µM; in the test on HS 578T breast, greater than 61.4 µM; in the test on UO-31 renal, greater than 100 µM; with SF-295 CNS, greater than 100 µM; in the test on PC-3 prostate, greater than 100 µM.

For the molecule `Cn1nc(-c2ccccc2)c2c(-c3ccccc3)c3cc(Cl)ccc3nc21`, the TGI with SK-MEL-28 melanoma is greater than 100 µM; in the test on OVCAR-3 ovarian it was greater than 100 µM; with OVCAR-5 ovarian it was greater than 100 µM; in the test with MOLT-4 leukemia, greater than 100 µM; in the test with A498 renal, greater than 100 µM; with HOP-92 NSCLC it was greater than 25 µM. Besides, the TGI in the test with SNB-19 CNS, in the test on HS 578T breast, in the test with UO-31 renal, in the test on SF-295 CNS and in the test on PC-3 prostate was greater than 100 µM each time.

As for `C/C(=N\O)C1CC2C=C(C#N)C1N(Cc1ccccc1)C2` (configuration not stated), the TGI in the test with SK-MEL-28 melanoma, with OVCAR-3 ovarian, with OVCAR-5 ovarian, with MOLT-4 leukemia, in the test with A498 renal and in the test on HOP-92 NSCLC was greater than 100 µM each time. Further, the TGI with SNB-19 CNS, in the test with HS 578T breast, in the test on UO-31 renal, in the test with SF-295 CNS and with PC-3 prostate was greater than 100 µM in each case.

For the molecule `CSC1=C(C#N)C(=O)N(c2ccc(C)cc2)C(=O)C1C#N` (configuration not stated), the TGI in the test with SK-MEL-28 melanoma is greater than 100 µM; with OVCAR-3 ovarian, greater than 100 µM; with OVCAR-5 ovarian it was greater than 100 µM; in the test on MOLT-4 leukemia, greater than 100 µM; in the test with A498 renal, greater than 100 µM; in the test on HOP-92 NSCLC, 82 µM. Further, the TGI in the test with SNB-19 CNS, in the test on HS 578T breast, in the test on UO-31 renal, in the test on SF-295 CNS and in the test on PC-3 prostate was greater than 100 µM in each case.

For the molecule `CCOC(=O)c1cn(CC)c2ccc3ccsc3c2c1=O`, the TGI in the test with SK-MEL-28 melanoma, in the test on OVCAR-3 ovarian, in the test with OVCAR-5 ovarian, in the test with MOLT-4 leukemia, with A498 renal and in the test on HOP-92 NSCLC was greater than 100 µM in each case. The TGI in the test on SNB-19 CNS, in the test on HS 578T breast, in the test with UO-31 renal, with SF-295 CNS and with PC-3 prostate was greater than 100 µM each time.

Consider `CC(C)OC(=O)NNc1cccc(Cl)c1`, for which the TGI in the test on SK-MEL-28 melanoma, with OVCAR-3 ovarian, with OVCAR-5 ovarian, in the test with MOLT-4 leukemia, in the test on A498 renal and in the test with HOP-92 NSCLC was greater than 100 µM in each case. Besides, the TGI with SNB-19 CNS, with HS 578T breast, in the test on UO-31 renal, with SF-295 CNS and in the test with PC-3 prostate was greater than 100 µM throughout.

On to `Nc1nc(Br)nc2ncn(C3CC(O)C(CO)O3)c12` (configuration not stated), for which the TGI in the test on SK-MEL-28 melanoma is greater than 100 µM; with OVCAR-3 ovarian it was greater than 100 µM; in the test with OVCAR-5 ovarian, greater than 100 µM; in the test with MOLT-4 leukemia, 0.202 µM; in the test with A498 renal, greater than 100 µM; with HOP-92 NSCLC, greater than 100 µM. Also, the TGI with SNB-19 CNS, in the test on HS 578T breast, with UO-31 renal, in the test on SF-295 CNS and with PC-3 prostate was greater than 100 µM throughout.

Consider `O=C(O)c1cccc(OCCOc2cccc(C(=O)O)c2[N+](=O)[O-])c1[N+](=O)[O-]`, for which the TGI in the test with SK-MEL-28 melanoma, in the test with OVCAR-3 ovarian, in the test with OVCAR-5 ovarian, with MOLT-4 leukemia, with A498 renal and in the test on HOP-92 NSCLC was greater than 100 µM in each case. In addition, the TGI with SNB-19 CNS, in the test on HS 578T breast, in the test with UO-31 renal, in the test with SF-295 CNS and with PC-3 prostate was greater than 100 µM throughout.

Regarding `COc1cc2c(cc1O)Cc1c-2[n+](C)cc2cc(OC)c(OC)cc12`, the TGI with SK-MEL-28 melanoma was greater than 100 µM; in the test on OVCAR-3 ovarian it was greater than 100 µM; in the test on OVCAR-5 ovarian it was greater than 100 µM; in the test with MOLT-4 leukemia, greater than 39.4 µM; in the test with A498 renal it was greater than 100 µM; in the test with HOP-92 NSCLC, greater than 100 µM. Besides, the TGI in the test on SNB-19 CNS is greater than 50 µM; with HS 578T breast, greater than 100 µM; in the test on UO-31 renal, greater than 100 µM; with SF-295 CNS, greater than 100 µM; in the test with PC-3 prostate, greater than 100 µM.
